Reference: patent publication EP0012161A1, “Application of 0-(2-nitro-4-methyl-phenyl)-0-methyl-N-isopropyl-phosphoroamido-thioat for inhibition of side growth of tobacco-plants” (BAYER AG, priority 1978, dated 1980)

What was measured:
Assay type in all cases: in vivo
[1] = test system: Alnus glutinosa; assay: Growth inhibition in woody plants (Alnus glutinosa), greenhouse spray test; conditions: 1008 h, one-year seedlings sprayed to run-off, increase in growth measured after 6 weeks, 100 % = growth standstill, 0 % = growth as control, read-out: Wuchshemmung in %
From the text: (§1) Lösungsmittel : 30 Gewichtsteile Dimethylformamid Emulgator: 1 Gewichtsteil Polyoxyethylen-SorbitanMonolaurat
(§2) Zur Herstellung einer zweckmäßigen Wirkstoffzubereitung vermischt man 1 Gewichtsteil Wirkstoff mit den angegebenen Mengen Lösungsmittel und Emulgator und füllt mit Wasser auf die gewünschte Konzentration auf.
(§3) Einjährige Sämlinge mit einer Wuchshöhe von 25 cm werden mit den Wirkstoffzubereitungen bis zum Abtropfen besprüht. Nach 6 Wochen Wachstum im Gewächshaus wird der Zuwachs gemessen und die Wuchshemmung in Prozent des Zuwachses der Kontrollpflanzen berechnet. 100 % bedeuten den Stillstand des Wachstums und 0 % ein Wachstum entsprechend dem der Kontrollpflanzen.

[2] = test system: Acer pseudoplatanus; assay: Growth inhibition in woody plants (Acer pseudoplatanus), greenhouse spray test; conditions: 1008 h, one-year seedlings sprayed to run-off, increase in growth measured after 6 weeks, 100 % = growth standstill, 0 % = growth as control, read-out: Wuchshemmung in %
From the text: as §1, §2, §3

[3] = test system: Tabak; assay: Inhibition of side shoot growth in tobacco, greenhouse spray test after decapitation; conditions: 504 h, decapitated plants sprayed to run-off, weight of side shoots after 3 weeks versus control, 100 % = no side shoots, read-out: Wuchshemmung in %
From the text: Lösungsmittel: 30 Gewichtsteile Dimethylformamid Emulgator: 1 Gewichtsteil Polyoxyethylensorbitan-Monolaurat
Zur Herstellung einer zweckmäßigen Wirkstoffzubereitung vermischt man 1 Gewichsteil Wirkstoff mit den angegebenen Mengen Lösungsmittel und.Emulgator und füllt mit Wasser auf die gewünschte Konzentration auf.
Tabakpflanzen werden im Gewächshaus bis zur Entfaltung des 7. Laubblattes angezogen. In diesem Stadium wird die apikale Vegetationsspitze der Pflanzen entfernt und die Pflanzen werden bis zum Abtropfen mit den Wirkstoffzubereitungen besprüht. Nach 3 Wochen werden die Seitentriebe der Pflanzen herausgebrochen und gewogen. Das Gewicht der Seitentriebe der behandelten Pflanzen wird mit dem der Kontrollpflanzen verglichen. 100 % Hemmung bedeutet das Fehlen von Seitentrieben und 0 t ein Wachstum der Seitentriebe entsprechend dem der Kontrollpflanzen.

[4] = test system: Weizen; assay: Growth inhibition in wheat, greenhouse spray test; conditions: 504 h; active compound concentration 0,05 %; plants at 2-leaf stage sprayed dripping wet; increase in growth measured after 3 weeks; 100 = growth standstill; read-out: Wuchshemmung in %
From the text: (§4) Lösungsmittel: 30 Gewichtsteile Dimethylformamid Emulgator: 1 Gewichtsteil Polyoxyethylen-SorbitanMonolaurat
as §2
(§5) Weizenpflanzen werden im Gewächshaus bis zum 2-BlattStadium angezogen. In diesem Stadium werden die Pflanzen tropfnaß mit den Wirkstoffzubereitungen besprüht. Nach 3 Wochen wird bei allen Pflanzen der Zuwachs gemessen und die Wuchshemmung in % des Zuwachses der Kontrollpflanzen berechnet. Es bedeuten 100 t den Stillstand des Wachstums und 0 % ein Wachstum entsprechend dem der Kontrollpflanzen.

[5] = test system: Sojabohnen; assay: Growth inhibition in soybeans, greenhouse spray test; conditions: 504 h; active compound concentration 0,05 %; plants with first trifoliate leaf unfolded sprayed dripping wet; increase in growth measured after 3 weeks; 100 % = growth standstill; read-out: Wuchshemmung in %
From the text: as §4, §2
as §5, with “Sojabohnenpflanzen werden” for “Weizenpflanzen werden”, “bis zur vollen Entfaltung des ersten Folgeblattes” for “bis zum 2-BlattStadium”, “100 %” for “100 t”, “und O” for “und 0”

[6] = active compound concentration 0,1 %
[7] = active compound concentration 0,4 %

For `COP(=S)(NC(C)C)Oc1ccc(C)cc1[N+](=O)[O-]` (stereo not drawn), which inhibition at 0.1 % [1, 6] is on record?
The inhibition at 0.1 % was 50%.

And the inhibition at 0.4 % [1, 7]?
Its inhibition at 0.4 % is 75%.

And the inhibition at 0.1 % [2, 6]?
The inhibition at 0.1 % was 65%.

What about the inhibition at 0.4 % [2, 7] of the same molecule?
Its inhibition at 0.4 % is 83%.

And the inhibition at 0.2 % ([3]; active compound concentration 0,2 %)?
Its inhibition at 0.2 % is 92%.

What about the inhibition at 0.4 % [3, 7] of the same molecule?
Its inhibition at 0.4 % is 99%.

And the inhibition at 0.6 % ([3]; active compound concentration 0,6 %)?
Its inhibition at 0.6 % is 99%.

What about the inhibition at 0.05 % [4] of the same molecule?
Its inhibition at 0.05 % is 35%.

What about the inhibition at 0.05 % [5] of the same molecule?
Its inhibition at 0.05 % is 80%.
